Series [1] is described as follows: Neuroprotective activity in cortical neurons assessed as reduction in glutamate-induced cell death at 5 uM incubated for 24 hrs prior to glutamate-challenge measured after 24 hrs by MTT assay. In kind it is functional, Cortical neurone. Set-up: scale not given: the % may be the effect or the level left. A general note: Tetrazolium dyes change colour on reduction, which living cells bring about.

Series [2] in a line: Neuroprotective activity in cortical neurons assessed as reduction in glutamate-induced cell death at 20 uM incubated for 24 hrs prior to glutamate-challenge measured after 24 hrs by MTT assay. In kind it is functional, Cortical neurone. Set-up: scale not given: the % may be the effect or the level left.
In a further series the test system is Rattus norvegicus. Briefly: Neuroprotective activity in rat assessed as reduction in bilateral cortical contusion-induced cerebral edema at 8 mg/kg, ip administered at 1 hr post-injury followed by 8 mg/kg, sc administered 6 hrs post-injury measured after 24 hrs relative to untreated control. In kind it is functional. Details: scale not given: the % may be the effect or the level left.

Series [3] in a line: Aqueous solubility of the compound in phosphate buffered saline after 90 mins by laser nephelometry at pH 7.4. It is filed as physicochemical.
Series [4] in a line: Aqueous solubility of the compound in phosphate buffered saline after 90 mins by laser nephelometry at pH 4. It is filed as physicochemical.
A short description of series [5]: Half life in aqueous media at pH 7. It is filed as physicochemical. The following applies: aqueous media.
The nature of series [6]: Half life in human plasma. In kind it is ADME, cell-free.

Structures are written as SMILES. Some results are limits rather than exact numbers.

The values below come from ChEMBL document CHEMBL2069197 (ACS Med Chem Lett, 2012).

By kinetic solubility is commonly meant solubility judged after dilution from a stock solution rather than from solid. In general, half-life refers to the time needed for the level to fall by half in the phase considered.

`CC(=O)[C@H]1CC[C@H]2[C@@H]3CCC4=CC(=O)CC[C@]4(C)[C@H]3CC[C@]12C` [PROGESTERONE]: the Activity in series [1] worked out at 4%; in series [2], 42%; in the series on Rattus norvegicus, 62%. For the same molecule, the kinetic solubility at 1.5 h in series [3] and in series [4] was under 25 µM throughout. Further, the half-life is over 240 h in series [5] and 25 min in series [6].
